Results taken from ChEMBL document CHEMBL1201862, “PubChem BioAssay data set” (2004).
Active and inactive are the calls of the source.

Tests used:
[1] = inhibitors of clade B AD8 Env fusion, dose response, cell-based, cherry-pick (AID 652062); assay type: functional;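 note: luciferase signal from cell-cell fusion driven by HIV-1 clade B AD8 Env; potency is for inhibitors of fusion seen as a drop in luminescence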
[2] = ZM109 Env clade C HIV-1 fusion inhibitors, dose response, HeLa effector, CEM target cells, luciferase, cherry-pick (AID 652058); assay type: functional, cell-based
[3] = inhibitors of HIV Env-driven cell fusion, dose response, cherry-pick (AID 652057); assay type: functional, cell-based
[4] = off-target signal loss in HeLa-CEM21 co-culture – HeLa F-luc CTL cells, cherry-picked, counter-screen for HIV-1 Env fusion inhibitor project, dose response (AID 652040); assay type: functional, cell-based;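 note: potency for signal decrease marking cytotoxic or nonspecific inhibition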
[5] = Luminescence Cell-Based Dose Response HTS to Identify Activators of Luciferase Translation or Activity in H4 […] Cells. [Related pubchem assays: 1829 (Project Summary), 1814 (Primary HTS)]; assay type: functional
H4 = assay: Luminescence Cell-Based Dose Response HTS to Identify Activators of 5'UTR Stem-Loop Driven Prion Protein mRNA Translation in H4 Neuroglioblastoma Cells. [Related pubchem assays: 1829 (Project Summary), 1814 (Primary HTS)]; assay type: functional; settings: Homo sapiens
[6] = target: T1, Oxysterols receptor LXR-beta (Homo sapiens, UniProt P55055); assay type: functional, cell-based;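 note: agonist activity at LXR measured by a cell-based luminescence readout across a dose range, run as a counterscreen for daf-12 agonists; HEK293 cells with Gal4-LXR fusion and GAL4-driven luciferase reporter; potency for activation of Gal4-LXR reporter so compounds are agonists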
T1 sequence (P55055 whole entry): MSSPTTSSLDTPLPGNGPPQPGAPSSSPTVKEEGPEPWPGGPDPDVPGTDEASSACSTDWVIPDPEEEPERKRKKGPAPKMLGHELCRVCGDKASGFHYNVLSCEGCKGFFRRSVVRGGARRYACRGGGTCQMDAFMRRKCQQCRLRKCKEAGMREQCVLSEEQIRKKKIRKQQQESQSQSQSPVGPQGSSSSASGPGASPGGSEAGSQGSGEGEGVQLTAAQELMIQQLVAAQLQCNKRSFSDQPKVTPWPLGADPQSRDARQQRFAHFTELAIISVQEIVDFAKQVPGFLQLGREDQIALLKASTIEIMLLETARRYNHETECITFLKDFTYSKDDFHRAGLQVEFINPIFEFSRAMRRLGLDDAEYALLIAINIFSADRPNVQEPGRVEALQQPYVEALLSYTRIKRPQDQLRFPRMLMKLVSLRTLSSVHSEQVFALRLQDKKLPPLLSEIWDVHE

[7] = Counterscreen for inhibitors of Trypanosoma brucei methionyl tRNA synthetase (MetRS): Luminescence-based cell-based high throughput dose response assay to identify compounds that are cytotoxic to Jurkat human T lymphocyte cells.; assay type: functional
[8] = target: T2, Methionyl-tRNA synthetase, putative (Trypanosoma brucei brucei, UniProt Q38C91); assay type: functional, Trypanosoma brucei brucei strain 927/4 GUTat10.1
T2 sequence (Q38C91 whole entry): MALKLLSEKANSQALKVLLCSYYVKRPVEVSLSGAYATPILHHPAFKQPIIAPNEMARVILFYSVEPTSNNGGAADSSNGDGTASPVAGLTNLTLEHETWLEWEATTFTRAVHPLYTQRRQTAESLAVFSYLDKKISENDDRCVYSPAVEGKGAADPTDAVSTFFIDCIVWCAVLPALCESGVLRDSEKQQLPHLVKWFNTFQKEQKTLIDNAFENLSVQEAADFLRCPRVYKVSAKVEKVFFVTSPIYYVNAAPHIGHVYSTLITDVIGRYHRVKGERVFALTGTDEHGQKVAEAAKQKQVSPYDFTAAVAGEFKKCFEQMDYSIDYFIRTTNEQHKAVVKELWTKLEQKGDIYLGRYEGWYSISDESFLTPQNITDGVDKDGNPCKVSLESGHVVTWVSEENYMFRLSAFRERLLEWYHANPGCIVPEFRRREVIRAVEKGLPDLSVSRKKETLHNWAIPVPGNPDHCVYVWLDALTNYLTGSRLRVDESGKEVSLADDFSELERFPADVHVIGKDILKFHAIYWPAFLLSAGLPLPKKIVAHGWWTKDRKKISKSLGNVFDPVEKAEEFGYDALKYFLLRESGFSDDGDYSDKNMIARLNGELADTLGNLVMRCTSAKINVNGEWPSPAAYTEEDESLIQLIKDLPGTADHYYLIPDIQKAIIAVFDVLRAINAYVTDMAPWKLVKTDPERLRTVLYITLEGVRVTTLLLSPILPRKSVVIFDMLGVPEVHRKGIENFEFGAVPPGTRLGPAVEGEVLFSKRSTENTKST

[9] = target: T2, Methionyl-tRNA synthetase, putative; assay type: functional, Trypanosoma brucei brucei strain 927/4 GUTat10.1; remark: listed apart in the source
[10] = target: T3, Corticotropin-releasing factor receptor 2/Corticotropin-releasing factor-binding protein (Homo sapiens, UniProt P24387+Q13324); assay: Dose Response confirmation of uHTS hits for small molecule antagonists of the CRF-binding protein and CRF-R2 receptor complex.; assay type: functional; settings: read-out: IC50_Mean
T3 sequence (Q13324 whole entry): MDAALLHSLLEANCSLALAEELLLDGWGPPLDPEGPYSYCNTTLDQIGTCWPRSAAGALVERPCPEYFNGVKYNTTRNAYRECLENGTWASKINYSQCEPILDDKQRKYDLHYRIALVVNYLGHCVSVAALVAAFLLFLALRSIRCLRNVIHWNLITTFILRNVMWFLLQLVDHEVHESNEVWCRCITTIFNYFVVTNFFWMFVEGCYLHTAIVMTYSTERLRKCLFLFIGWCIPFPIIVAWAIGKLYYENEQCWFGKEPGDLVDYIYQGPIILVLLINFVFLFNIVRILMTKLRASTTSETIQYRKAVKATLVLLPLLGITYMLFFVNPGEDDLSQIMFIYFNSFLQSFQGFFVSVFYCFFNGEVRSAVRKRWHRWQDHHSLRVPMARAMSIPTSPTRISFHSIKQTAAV
T3 sequence (P24387 whole entry): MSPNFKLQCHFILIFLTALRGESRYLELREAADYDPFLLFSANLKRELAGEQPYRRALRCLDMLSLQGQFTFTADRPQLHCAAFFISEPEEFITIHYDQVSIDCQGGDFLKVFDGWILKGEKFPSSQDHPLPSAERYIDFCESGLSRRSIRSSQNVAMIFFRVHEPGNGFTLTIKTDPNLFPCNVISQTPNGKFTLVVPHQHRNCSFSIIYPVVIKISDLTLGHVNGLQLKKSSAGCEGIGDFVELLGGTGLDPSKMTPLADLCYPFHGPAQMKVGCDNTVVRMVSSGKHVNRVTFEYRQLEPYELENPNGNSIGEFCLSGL

[11] = target: T3, Corticotropin-releasing factor receptor 2/Corticotropin-releasing factor-binding protein; assay: activators of CRF receptor 2 with binding protein – uHTS hits, confirmation (AID 602473); assay type: functional; settings: read-out: EC50_Mean
[12] = CRF-BP/CRF-R2 complex antagonists, dose response, cell-based, uHTS hits, 384-well (AID 651639); assay type: functional, Homo sapiens; settings: read-out: IC50_Mean
[13] = cytotoxicity toward NIH3T3 fibroblasts, dose response, counter-screen, cell-based, ATP luminescence, mouse fibroblasts (AID 2010); assay type: functional;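 note: cells exposed to compound for about 90 hours before reading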
INS1 = assay: beta cell apoptosis inhibitors, cytokine rescue, dose response, luminescence, retest (AID 449756); assay type: functional, cell-based; settings: Rattus norvegicus;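 note: cell death triggered by IL-1 beta plus TNF-alpha plus IFN-gamma mixture; protective hits raise ATP signal compared with cytokine alone wells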
[14] = inhibitors of SNCA 5'UTR-driven reporter translation, confirmation, H4 neuroglioma cells, luminescence (AID 1988); assay type: functional, cell-based
[15] = inhibitors of firefly luciferase expression or activity, dose response, H4 neuroglioma cells, luminescence (AID 1990); assay type: functional, cell-based
[16] = cytotoxicity in HEK-293T cells, dose response, cytotoxicity control for TCR NF-kB inhibitor project, luminescence, T-cell screen hits (AID 489026); assay type: functional, cell-based;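 note: cells exposed to compound about 14 hours before the viability readout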
[17] = Luminescence Cell-Based Dose Response HTS to Identify Inhibitors of 5'UTR Stem-Loop Driven Prion Protein mRNA Translation in H4 Neuroglioblastoma Cells. [Related pubchem assays: 1827 (Project Summary), 1813 (Primary HTS)]; assay type: functional
[18] = inhibitors of intracellular T. cruzi replication, confirmation, NIH3T3 host cells, beta-gal luminescence (AID 2044); assay type: functional, cell-based;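 note: intracellular parasites grown in NIH/3T3 mouse fibroblasts as host cells; luminescent beta-galactosidase reporter signal from transgenic T. cruzi replicating inside host cells; inhibitors lower the luminescence signal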
[19] = target: T4, COUP transcription factor 2 (Homo sapiens, UniProt P24468); assay: Luminescence-based cell-based high throughput dose response assay to identify inhibitors of COUP-TFII (NR2F2).; assay type: functional;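 note: HEK293 cells transiently cotransfected with COUP-TFII expression vector and reporter; luciferase reporter luminescence driven by COUP-TFII from the pX2-168 reporter plasmid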
T4 sequence (P24468 whole entry): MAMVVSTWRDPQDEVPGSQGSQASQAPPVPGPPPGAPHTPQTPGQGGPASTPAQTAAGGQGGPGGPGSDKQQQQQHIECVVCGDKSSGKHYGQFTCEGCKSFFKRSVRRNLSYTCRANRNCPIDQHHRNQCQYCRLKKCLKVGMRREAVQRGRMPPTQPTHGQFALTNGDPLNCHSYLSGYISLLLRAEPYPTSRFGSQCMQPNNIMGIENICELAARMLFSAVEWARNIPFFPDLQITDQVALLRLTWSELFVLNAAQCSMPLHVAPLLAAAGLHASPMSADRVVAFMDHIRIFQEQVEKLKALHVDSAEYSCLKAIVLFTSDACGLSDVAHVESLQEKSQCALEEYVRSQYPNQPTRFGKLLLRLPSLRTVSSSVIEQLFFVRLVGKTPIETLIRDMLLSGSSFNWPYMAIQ

Caspase-6 = target: T5, Caspase-6 (Homo sapiens, UniProt P55212); assay: human caspase-6 inhibitors, dose response, biochemical, VEID-R110 fluorescence, cherry-pick (AID 720632)
T5 sequence (P55212 whole entry): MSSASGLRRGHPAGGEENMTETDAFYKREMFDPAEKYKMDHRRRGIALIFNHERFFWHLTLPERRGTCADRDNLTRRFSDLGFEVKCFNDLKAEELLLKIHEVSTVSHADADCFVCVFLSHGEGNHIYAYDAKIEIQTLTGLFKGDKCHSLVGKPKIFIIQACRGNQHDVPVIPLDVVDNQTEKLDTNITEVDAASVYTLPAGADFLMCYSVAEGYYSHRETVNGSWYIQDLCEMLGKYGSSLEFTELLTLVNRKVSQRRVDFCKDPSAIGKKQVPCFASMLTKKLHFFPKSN

[20] = cytotoxicity in OVCAR8 ovarian cancer cells, dose response, PAX8 project, cell-based, plate reader, dry powder samples (AID 743197); assay type: functional; settings: OVCAR-8
[21] = NIH:OVCAR-3 ovarian cancer cell cytotoxicity, dose response, PAX8 inhibitor project, plate reader, dry powder samples (AID 743044); assay type: functional, cell-based
Paired box protein Pax-8 = Paired box protein Pax-8 (Homo sapiens, UniProt Q06710); assay: inhibitors of PAX8-driven TPO luciferase reporter, dose response, RMG-I cells, cherry-pick (AID 687027); assay type: functional, cell-based;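 note: luciferase reporter driven by Pax8 target thyroperoxidase promoter measured by SteadyGlo luminescence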
Sequence of Paired box protein Pax-8 (Q06710 whole entry): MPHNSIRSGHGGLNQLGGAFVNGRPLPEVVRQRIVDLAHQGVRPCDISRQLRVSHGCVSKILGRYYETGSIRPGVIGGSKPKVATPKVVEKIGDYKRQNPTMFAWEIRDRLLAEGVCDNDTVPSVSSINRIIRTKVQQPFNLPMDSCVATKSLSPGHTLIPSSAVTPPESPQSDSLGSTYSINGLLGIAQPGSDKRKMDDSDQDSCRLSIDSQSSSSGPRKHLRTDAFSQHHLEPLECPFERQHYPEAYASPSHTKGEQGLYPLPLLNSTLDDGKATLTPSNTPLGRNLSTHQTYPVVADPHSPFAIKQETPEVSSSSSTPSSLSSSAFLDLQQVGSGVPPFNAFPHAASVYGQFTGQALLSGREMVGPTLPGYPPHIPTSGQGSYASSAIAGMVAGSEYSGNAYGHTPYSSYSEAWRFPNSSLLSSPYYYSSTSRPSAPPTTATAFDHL

## Cc1ccc(C(c2nnnn2CS(=O)(=O)c2ccc(C)cc2)N2CCCC2)cc1 (centres undefined)
[1]
  AC50: 2.35 µM (active)
[2]
  AC50: 3.55 µM (active)
[3]
  AC50: 3.22 µM (active)
[4]
  AC50: 3.97 µM (active)

## N=C1c2ccccc2CN1CC(=O)c1ccccc1
[5]
  EC50: 10.6 µM (active)
H4
  EC50: 8 µM (active)
[6]
  EC50: > 67.6 µM (inactive)

## O=C(NCC(O)COc1ccc([N+](=O)[O-])cc1)Nc1ccccc1 (centres undefined)
[7]
  IC50: 83.4 µM (inactive)
[8]
  IC50: 15.6 µM (inactive)
[9]
  IC50: 9.32 µM (active)

## Cc1nc2ccccc2n1CCOc1ccc([N+](=O)[O-])cc1
[10]
  IC50: < 0.368 µM (active)
[11]
  EC50: > 53 µM (inactive)
[12]
  IC50: 0.972 µM (active)

## N=c1ccn(CC(=O)c2ccc(-c3ccccc3)cc2)cc1
[13]
  EC50: > 60 µM (not active)
INS1
  AC50: 1.46 µM (active)
[14]
  EC50: 7.33 µM (active)
[15]
  EC50: 9.17 µM (active)
[16]
  IC50: > 80 µM (inactive)
[17]
  EC50: 12.3 µM (active)
[18]
  EC50: 2.01 µM (active)
[19]
  IC50: 9.15 µM (active)

## O=C(O)c1cc([N+](=O)[O-])cc2c1C=Cc1ccccc1O2
Caspase-6
  AC50: 37.5 µM (active)

## COCCNC(=O)/C(C#N)=C/c1cc(C)n(C2CCCCC2)c1C
[6]
  EC50: > 67.5 µM (inactive)

## Cc1ccc(C)c(S(=O)(=O)C(C#N)c2nc3ccccc3nc2N2CCOCC2)c1 (centres undefined)
[10]
  IC50: 39.8 µM (active)
[11]
  EC50: 35.8 µM (active)
[12]
  IC50: > 20 µM (inactive)

## COc1ccccc1CN(C)C(=O)C(c1ccccc1)c1ccccc1
[10]
  IC50: 8.1 µM (active)
[11]
  EC50: > 53 µM (inactive)
[12]
  IC50: > 20 µM (inactive)

## O=C(NCC(=O)N1CCN(c2ncccn2)CC1)c1ccccc1OC(F)F
[1]
  AC50: 13.1 µM (active)
[2]
  AC50: 2.86 µM (active)
[3]
  AC50: 2.79 µM (active)
[4]
  AC50: 3.72 µM (active)

## COc1ccccc1-c1c[nH]c(C(O)c2cc(Cl)cc(Cl)c2)n1 (centres undefined)
[7]
  IC50: 83.3 µM (inactive)
[8]
  IC50: 3.26 µM (active)
[9]
  IC50: 2.38 µM (active)

## C[C@@H]1CCCCO[C@@H](CN(C)C(=O)Nc2ccc(C(F)(F)F)cc2)[C@H](C)CN([C@H](C)CO)C(=O)c2cc(NS(=O)(=O)c3ccc(Cl)cc3)ccc2O1
[20]
  AC50: 32 µM (active)
[21]
  AC50: 27.8 µM (active)
Paired box protein Pax-8
  AC50: 3.25 µM (active)

## C[C@H]1CN([C@@H](C)CO)C(=O)c2c(c3ccccc3n2C)-c2ccccc2CO[C@H]1CN(C)C(=O)Nc1cccc(F)c1
[1]
  AC50: 2.88 µM (active)
[2]
  AC50: < 0.26 µM (active)
[3]
  AC50: < 0.26 µM (active)
[4]
  AC50: 0.362 µM (active)

## O=C(CCC(=O)Nc1cccc([N+](=O)[O-])c1)N/N=C/c1cccs1
[7]
  IC50: 83.3 µM (inactive)
[8]
  IC50: 8.34 µM (active)
[9]
  IC50: 5.26 µM (active)

## C/C(=N\c1ccccc1)c1sc2ccccc2c1O
[5]
  EC50: 2.22 µM (active)
H4
  EC50: 0.153 µM (active)
[6]
  EC50: > 67.6 µM (inactive)
